Molecules are shown by their SMILES.

Test [1] concerns S. aureus ATCC 35556. Nature of the test: Inhibition of biofilm growth at various stages of biofilm development (time of addition). Conditions: 22 hours total incubation, CV staining. The format is cell-based, Staphylococcus aureus. The method, then:
Compound 4 was added to bacterial cultures at a concentration of 4XMBIC (12 μM) at various times (0, 1, 2, 4, 6, 8, 10, 12, and 21 hours) over a 22 hour incubation period. Biofilm growth was also followed in parallel cultures in the absence of Compound 4 (untreated controls). Biofilm growth was quantified in samples by staining with crystal violet and measuring OD600. […] See, Example 5 for details.
In this experiment, wells of a 96-well assay plate containing growth medium (0.5×TSB, 0.25% (w/v) glucose) were inoculated with S. aureus ATCC 35556 and incubated at 37° C. At selected times (0, 1, 2, 4, 6, 8, 10, 12, 21 hours) during the incubation period, Compound 4 was added to individual wells at a concentration of 4×MBIC. Biofilms were washed and stained with crystal violet (CV) to measure biofilm growth after the entire assay plate (all cultures) had been incubated for a total of 22 hours. Biofilm growth in the absence of Compound 4 was followed in parallel cultures (untreated control cultures). Samples were taken from untreated cultures at the same times as Compound 4 was added to the inhibition cultures to quantify the level of biofilm growth by the CV staining method. […]

In test [2] the test system is S. aureus ATCC 35556. The test is described as follows: Planktonic growth curve assay. The format is cell-based, Staphylococcus aureus. The note with it: aerobic planktonic cultures; concentrations up to 8×MBIC; data not shown. The method, then:
However, the specificity of these compounds for inhibiting biofilm growth was verified using an alternative growth curve assay. Planktonic cultures of S. aureus ATCC 35556 were grown aerobically in the presence of various concentrations of Compound 4 (MBIC=3.125 μM). Bacterial cell growth was monitored over time by measuring OD600.

`CCOc1cc(/C=C2\SC(=S)N(c3ccc(F)cc3)C2=O)ccc1O` [Compound 4, 3-(4-fluorophenyl)-5-(3-ethoxy-4-hydroxybenzylidene)-2-thioxothiazolidin-4-one]: the “inhibition of biofilm formation, early stages” value in test [1] (Compound added at 4×MBIC at early stages (up to 2 h)) was “inhibited”. The “inhibition of biofilm formation, maturing biofilms” value in test [1] (Compound added at 4×MBIC to maturing biofilms (8-16 h)) is listed as “resistant”. Also, in test [2], the “effect on planktonic bacterial cell growth (OD600 over time)” value is listed as “did not affect”.

(Values after patent US20110098323A1, “INHIBITORS OF BACTERIAL BIOFILM FORMATION” (MICROBIOTIX, INC., priority 2009, published 2011).)
